Results published in patent US20230346820A1, “METHODS AND COMPOSITIONS FOR THE TREATMENT OF SARS-COV-2” (priority 2020, published 2023).
Like-named read-outs stand apart in the source and are kept apart here.

Assays:
SARS-CoV-2 [1] = tested on: SARS-CoV-2
SARS-CoV-2 [2] = assay: microbe, parasite or virus in culture
[3] = mouse, cited from earlier work
in vitro = conditions: human
[4] = rat, oral; cited from earlier work
HeLa-ACE2 cells [5] = conditions: human
HeLa-ACE2 cells [6] = assay: cells; assay type: cell-based, human; conditions: Homo sapiens, HeLa-ACE2, read-out: HeLa-ACE-2 EC50 [μM] (Geomeans, n ≥ 2)
SARS-CoV-2 [7] = assay: microbe, parasite or virus in culture; conditions: Severe acute respiratory syndrome coronavirus 2, Calu-3, read-out: Calu-3 SARS-CoV-2 EC50
SARS-CoV-2 [8] = assay: Time of addition (TOA) assay in HeLa-ACE2 cells; assay type: cell-based; conditions: 10 μM, HeLa-ACE2, time course 4 to 24 hpi
SARS-CoV-2 [9] = assay: SARS-CoV-2 primary ALI HBEC model; assay type: cell-based; conditions: apical washes 72 hpi
Method: SARS-CoV-2 primary ALI HBEC model. Normal primary human bronchial epithelial cells (HBECs) (Lonza) were cultured in Millicell-96 cell culture insert plates with 1 μm PET filters (Sigma) at an air liquid interface for at least 4 weeks using PneumaCult™-ALI Medium (Stemcell Technologies). Briefly, the HBECs were first expanded in cell culture flasks before seeding 10,000 cells per well submerged in PneumaCult™-Ex Plus Medium. After 1 week, the cells were switched into PneumaCult™-ALI Medium and medium was removed from the apical surface. The air liquid interface was maintained, and the medium exchanged every 2-3 days for at least 4 weeks to allow for differentiation of the cells. Prior to infection, the apical surface was rinsed once with DPBS and compounds were added to the basolateral chamber. 20,000 PFU SARS-CoV-2 strain USA-WA1/2020 were added to the apical surface in 50 μL PBS and allowed to incubate for 2 h. The inoculum was then removed, and the cells rinsed once with DPBS. The medium was exchanged, and fresh compound added at 24 and 48 h post-infection. Apical washes were collected at 72 h post-infection by adding 100 μL DPBS to the apical surface for 15 minutes. RNA was isolated from the apical washes using the PureLink™ Pro 96 Viral RNA/DNA Purification Kit (Thermo Fisher) and analyzed for viral RNA levels by RT-qPCR using the SuperScript™ III Platinum™ One-Step qRT-PCR Kit (Thermo Fisher) and the 2019-nCoV N1 CDC Primers and Probe set (Integrated DNA Technologies). A standard curve was generated by isolating RNA from serial dilutions of the stock virus and used to determine the PFU equivalents/mL for each sample. The viral load reductions were then determined for each experimental compound treatment compared to the neutral DMSO control and plotted in log scale. Cytotoxicity was assessed by measuring LDH activity in the basolateral media using a Cytotoxicity Detection kit (LDH) (Sigma) following the manufacturer's instructions. […] Technical triplicates were run for both antiviral and cytotoxicity readouts. […]

[10] = in vivo; cited from earlier work
[11] = human, oral; cited from earlier work
[12] = COVID-19 patients; shortened from 15; cited from earlier work
SARS-CoV-2 [13] = assay: Checkerboard synergy study with remdesivir (ZIP model, synergyfinder); assay type: cell-based
[14] = Severe acute respiratory syndrome coronavirus 2, HeLa-ACE2, 24 h, read-out: CoV-2 EC50 [μM] (Geomeans, n ≥ 2)
[15] = CC50 [μM] (Geomeans, n ≥ 2 except where indicated: *n = 1)
[16] = Severe acute respiratory syndrome coronavirus 2, HeLa-ACE2, read-out: SARS CoV-2 EC50 (μM)

COc1cc(-n2cnc3cc(-c4ccc(Cl)cc4)sc3c2=O)ccc1OCCN1CCCC1 [GW-803430]
HeLa-ACE2 CC50/CoV-2 EC50 (SARS-CoV-2 [1]): 11.16
EC50 (SARS-CoV-2 [2]; [14]): 1.7 µM
t1/2 [3]: ~11 h (mouse)(38)
CC50 (in vitro; [15]): 18.9 µM
Cmax [4]: ~585 nM

CCC(CC)COC(=O)[C@H](C)N[P@](=O)(OC[C@H]1O[C@@](C#N)(c2ccc3c(N)ncnn23)[C@H](O)[C@@H]1O)Oc1ccccc1 [Remdesivir]
CC50 (HeLa-ACE2 cells [5]): 9.97 µM
EC50 (HeLa-ACE2 cells [6]): > 9.6 µM
EC50 (SARS-CoV-2 [7]): 0.444 µM
HeLa-ACE2 CC50/CoV-2 EC50 (SARS-CoV-2 [1]): 78.7
increase in EC50 from MOI=1 to MOI=26 (SARS-CoV-2 [1]): 2.7 fold
EC50 (SARS-CoV-2 [1]; read-out: SARS-CoV-2 EC50): 0.3 µM
EC50 (SARS-CoV-2 [2]; [14]): 0.127 µM
EC50 (SARS-CoV-2 [2]; [16]): 0.127 µM
EC50 (SARS-CoV-2 [2]; Severe acute respiratory syndrome coronavirus 2, HeLa-ACE2, read-out: SARS-CoV-2 EC50): 0.194 ± 0.02 µM
CC50 (in vitro; Uninfected HeLa-ACE2 CC50 (μM)): > 8.46 µM
CC50 (in vitro; uninfected HeLa-ACE2 CC50): > 40 µM
activity when treatment initiated at 1 hpi (SARS-CoV-2 [8]): effectively blocked the infection
viral replication in ALI-HBECs (SARS-CoV-2 [9]): inhibited viral replication
mortality of hospitalized COVID-19 patients [10]: failed to reduce mortality
Cmax [11]: ~5000 nM
t1/2 [11]: ~1 h (human oral)(15)
median time to recovery [12]: 11 days

CCN1CCC(c2cc(C)c3nc(-c4cc5c(C)nc(C)cn5n4)cc(=O)n3c2)CC1 [SMN-C3]
Synergy score with remdesivir (δ) (SARS-CoV-2 [13]; Table 1, ZIP model, δ>10 synergy, δ<−10 antagonism, between additive): −0.365
Synergy score with remdesivir (δ) (SARS-CoV-2 [13]; Table 3): −0.37
EC50 (HeLa-ACE2 cells [6]): > 8.14 µM
HeLa-ACE2 CC50/CoV-2 EC50 (SARS-CoV-2 [1]): 5.12
EC50 (SARS-CoV-2 [2]; [14]): 1.4 µM
EC50 (SARS-CoV-2 [2]; [16]): 1.4 µM
Cmax ([3]; oral): ~2000 nM
CC50 (in vitro; [15]): 7.16 µM
CC50 (in vitro; Uninfected HeLa-ACE2 CC50 (μM)): 7.16 µM
